Holding throughout (assay): Kinase inhibitor specificity profiling (Reaction Biology Corporation)
What all share (format): biochemical
What all share (set-up): % Enzyme Activity (relative to DMSO controls): concentration or dose not given beside the values

The target of assay [1] is T1, panel of 370 protein kinases (Homo sapiens, UniProt Q86Z02).
T1 construct: purchased Reaction Biology Corporation (assay service)
The conditions noted are these: 2 h, kinase HIPK1; read-out: % Enzyme Activity (relative to DMSO controls).

For assay [2], the target named is T2, panel of 370 protein kinases (Homo sapiens, UniProt P11802).
T2 construct: purchased Reaction Biology Corporation (assay service)
T2 sequence (P11802 whole entry): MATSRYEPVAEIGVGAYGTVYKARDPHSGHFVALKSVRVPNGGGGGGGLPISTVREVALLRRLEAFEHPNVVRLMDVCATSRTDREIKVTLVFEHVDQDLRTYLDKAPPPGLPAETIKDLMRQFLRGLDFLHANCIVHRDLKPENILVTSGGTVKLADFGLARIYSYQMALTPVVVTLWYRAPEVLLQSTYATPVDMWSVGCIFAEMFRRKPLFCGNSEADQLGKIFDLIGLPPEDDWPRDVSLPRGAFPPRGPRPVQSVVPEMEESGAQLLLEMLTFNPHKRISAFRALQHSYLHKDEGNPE
Particulars: 2 h, read-out: % Enzyme Activity (relative to DMSO controls).

Assay [3] addresses T3, panel of 370 protein kinases (Homo sapiens, UniProt P06239).
T3 construct: purchased Reaction Biology Corporation (assay service)
Particulars: 2 h, kinase LCK; read-out: % Enzyme Activity (relative to DMSO controls).

Assay [4] has as its target T4, panel of 370 protein kinases (Homo sapiens, UniProt O15075).
T4 construct: purchased Reaction Biology Corporation (assay service)
The conditions noted are these: kinase DCAMKL1.

The target in assay [5] is T5, panel of 370 protein kinases (Homo sapiens, UniProt P37023).
T5 construct: purchased Reaction Biology Corporation (assay service)
The conditions noted are these: 2 h, kinase ALK1/ACVRL1; read-out: % Enzyme Activity (relative to DMSO controls).

Assay [6] has as its target T6, panel of 370 protein kinases (Homo sapiens, UniProt P41240).
T6 construct: purchased Reaction Biology Corporation (assay service)
The conditions noted are these: kinase CSK.

The target in assay [7] is T7, panel of 370 protein kinases (Homo sapiens, UniProt Q99759).
T7 construct: purchased Reaction Biology Corporation (assay service)
Particulars: 2 h, kinase MEKK3; read-out: % Enzyme Activity (relative to DMSO controls).

Assay [8] has as its target T8, panel of 370 protein kinases (Homo sapiens, UniProt P27448).
T8 construct: purchased Reaction Biology Corporation (assay service)
Particulars: 2 h, kinase MARK3; read-out: % Enzyme Activity (relative to DMSO controls).

Assay [9] deals with T9, panel of 370 protein kinases (Homo sapiens, UniProt Q9UEW8).
T9 construct: purchased Reaction Biology Corporation (assay service)
Particulars: 2 h, kinase STK39/STLK3; read-out: % Enzyme Activity (relative to DMSO controls).

The target of assay [10] is T10, panel of 370 protein kinases (Homo sapiens, UniProt P36507).
T10 construct: purchased Reaction Biology Corporation (assay service)
T10 sequence (P36507 whole entry): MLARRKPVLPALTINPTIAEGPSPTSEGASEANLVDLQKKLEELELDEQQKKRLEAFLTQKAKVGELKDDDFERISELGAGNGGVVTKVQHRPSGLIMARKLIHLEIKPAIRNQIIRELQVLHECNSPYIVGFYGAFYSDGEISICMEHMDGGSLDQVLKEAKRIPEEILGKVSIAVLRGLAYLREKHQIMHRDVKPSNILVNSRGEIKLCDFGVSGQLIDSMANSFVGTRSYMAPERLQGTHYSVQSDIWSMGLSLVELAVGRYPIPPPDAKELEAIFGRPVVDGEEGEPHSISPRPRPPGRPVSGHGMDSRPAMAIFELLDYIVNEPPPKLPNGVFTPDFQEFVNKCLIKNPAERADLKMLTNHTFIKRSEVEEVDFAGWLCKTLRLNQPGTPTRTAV
Particulars: 2 h, kinase MEK2; read-out: % Enzyme Activity (relative to DMSO controls).

The target in assay [11] is T11, panel of 370 protein kinases (Homo sapiens, UniProt Q9Y3S1).
T11 construct: purchased Reaction Biology Corporation (assay service)
The conditions noted are these: 2 h, kinase WNK2; read-out: % Enzyme Activity (relative to DMSO controls).

Assay [12] concerns the target T12, panel of 370 protein kinases (Homo sapiens, UniProt Q04912).
T12 construct: purchased Reaction Biology Corporation (assay service)
The conditions noted are these: 2 h, kinase RON/MST1R; read-out: % Enzyme Activity (relative to DMSO controls).

Assay [13] concerns the target T13, panel of 370 protein kinases (Homo sapiens, UniProt Q9P286).
T13 construct: purchased Reaction Biology Corporation (assay service)
Particulars: 2 h, kinase PAK5; read-out: % Enzyme Activity (relative to DMSO controls).

Assay [14] concerns the target T14, panel of 370 protein kinases (Homo sapiens, UniProt P53778).
T14 construct: purchased Reaction Biology Corporation (assay service)
Particulars: 2 h, kinase P38g; read-out: % Enzyme Activity (relative to DMSO controls).

Assay [15] concerns the target T15, panel of 370 protein kinases (Homo sapiens, UniProt Q00537).
T15 construct: purchased Reaction Biology Corporation (assay service)
The conditions noted are these: 2 h, kinase CDK17/cyclin Y (PCTK2); read-out: % Enzyme Activity (relative to DMSO controls).

Assay [16] concerns the target T16, panel of 370 protein kinases (Homo sapiens, UniProt P54762).
T16 construct: purchased Reaction Biology Corporation (assay service)
The conditions noted are these: 2 h, kinase EPHB1; read-out: % Enzyme Activity (relative to DMSO controls).

Assay [17] addresses T17, panel of 370 protein kinases (Homo sapiens, UniProt Q96GX5).
T17 construct: purchased Reaction Biology Corporation (assay service)
Particulars: kinase MASTL.

The target in assay [18] is T18, panel of 370 protein kinases (Homo sapiens, UniProt O15264).
T18 construct: purchased Reaction Biology Corporation (assay service)
The conditions noted are these: 2 h, kinase P38d/MAPK13; read-out: % Enzyme Activity (relative to DMSO controls).

Assay [19] concerns the target T19, panel of 370 protein kinases (Homo sapiens, UniProt P06213).
T19 construct: purchased Reaction Biology Corporation (assay service)
Particulars: 2 h, kinase IR; read-out: % Enzyme Activity (relative to DMSO controls).

The target in assay [20] is T20, panel of 370 protein kinases (Homo sapiens, UniProt O95747).
T20 construct: purchased Reaction Biology Corporation (assay service)
The conditions noted are these: 2 h, kinase OSR1/OXSR1; read-out: % Enzyme Activity (relative to DMSO controls).

Assay [21] deals with T21, panel of 370 protein kinases (Homo sapiens, UniProt Q96RR4).
T21 construct: purchased Reaction Biology Corporation (assay service)
Particulars: 2 h, kinase CAMKK2; read-out: % Enzyme Activity (relative to DMSO controls).

“And” between values parts separate entries of the source, which are not always exact repeats. Equal values may be shown once. Read-outs that look alike come from different tables or passages of the source.

T4 sequence (O15075 whole entry): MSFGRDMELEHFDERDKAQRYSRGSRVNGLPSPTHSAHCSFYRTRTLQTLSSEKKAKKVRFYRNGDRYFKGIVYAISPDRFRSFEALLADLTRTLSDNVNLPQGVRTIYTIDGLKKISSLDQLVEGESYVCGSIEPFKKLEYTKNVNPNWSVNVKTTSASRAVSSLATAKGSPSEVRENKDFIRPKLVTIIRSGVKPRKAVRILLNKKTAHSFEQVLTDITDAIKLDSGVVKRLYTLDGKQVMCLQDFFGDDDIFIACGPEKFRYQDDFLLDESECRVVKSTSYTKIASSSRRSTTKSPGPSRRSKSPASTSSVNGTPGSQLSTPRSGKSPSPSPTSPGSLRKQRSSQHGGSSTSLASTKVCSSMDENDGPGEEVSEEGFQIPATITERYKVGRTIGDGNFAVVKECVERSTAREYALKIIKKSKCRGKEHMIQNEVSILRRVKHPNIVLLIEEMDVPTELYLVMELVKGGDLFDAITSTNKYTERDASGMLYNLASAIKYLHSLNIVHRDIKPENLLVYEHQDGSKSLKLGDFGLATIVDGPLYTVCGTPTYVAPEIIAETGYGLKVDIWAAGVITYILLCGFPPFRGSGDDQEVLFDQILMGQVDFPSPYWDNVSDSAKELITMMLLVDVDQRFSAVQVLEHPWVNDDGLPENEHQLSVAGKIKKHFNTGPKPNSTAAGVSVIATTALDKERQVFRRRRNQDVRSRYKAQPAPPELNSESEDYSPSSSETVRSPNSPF
T6 sequence (P41240 whole entry): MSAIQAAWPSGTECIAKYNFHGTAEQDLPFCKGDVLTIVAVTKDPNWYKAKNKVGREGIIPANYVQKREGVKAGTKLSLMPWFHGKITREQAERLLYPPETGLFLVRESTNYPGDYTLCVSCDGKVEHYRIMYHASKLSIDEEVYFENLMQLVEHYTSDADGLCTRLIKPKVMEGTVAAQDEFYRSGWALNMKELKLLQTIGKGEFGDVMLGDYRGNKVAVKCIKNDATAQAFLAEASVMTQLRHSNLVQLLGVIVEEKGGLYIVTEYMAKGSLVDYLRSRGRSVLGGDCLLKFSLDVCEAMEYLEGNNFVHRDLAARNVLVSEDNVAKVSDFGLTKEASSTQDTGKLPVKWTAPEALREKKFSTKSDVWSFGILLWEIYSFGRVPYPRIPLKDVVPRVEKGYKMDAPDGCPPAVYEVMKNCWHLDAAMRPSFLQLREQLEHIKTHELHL
T17 sequence (Q96GX5 whole entry): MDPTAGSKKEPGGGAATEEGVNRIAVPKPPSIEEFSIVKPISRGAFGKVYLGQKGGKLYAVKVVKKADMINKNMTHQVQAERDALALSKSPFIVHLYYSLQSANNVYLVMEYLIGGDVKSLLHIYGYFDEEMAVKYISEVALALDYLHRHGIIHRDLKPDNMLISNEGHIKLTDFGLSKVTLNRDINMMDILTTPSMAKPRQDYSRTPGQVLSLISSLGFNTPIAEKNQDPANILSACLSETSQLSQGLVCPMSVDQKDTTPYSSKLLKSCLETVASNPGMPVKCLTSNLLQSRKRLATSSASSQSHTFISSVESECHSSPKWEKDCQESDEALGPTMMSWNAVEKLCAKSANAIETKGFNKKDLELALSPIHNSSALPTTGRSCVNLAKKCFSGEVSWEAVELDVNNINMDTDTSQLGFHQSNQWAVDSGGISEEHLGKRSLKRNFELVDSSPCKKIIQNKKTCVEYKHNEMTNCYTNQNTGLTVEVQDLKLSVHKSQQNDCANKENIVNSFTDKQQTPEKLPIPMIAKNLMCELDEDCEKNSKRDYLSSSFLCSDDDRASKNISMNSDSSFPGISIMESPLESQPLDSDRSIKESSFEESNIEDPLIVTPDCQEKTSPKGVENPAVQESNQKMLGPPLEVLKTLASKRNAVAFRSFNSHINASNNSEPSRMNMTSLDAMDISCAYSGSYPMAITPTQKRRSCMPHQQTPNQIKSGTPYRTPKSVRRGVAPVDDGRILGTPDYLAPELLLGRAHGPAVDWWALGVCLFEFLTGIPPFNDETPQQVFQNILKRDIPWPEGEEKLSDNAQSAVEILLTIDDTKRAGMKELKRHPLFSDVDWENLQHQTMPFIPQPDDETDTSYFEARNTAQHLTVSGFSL
T13 sequence (Q9P286 whole entry): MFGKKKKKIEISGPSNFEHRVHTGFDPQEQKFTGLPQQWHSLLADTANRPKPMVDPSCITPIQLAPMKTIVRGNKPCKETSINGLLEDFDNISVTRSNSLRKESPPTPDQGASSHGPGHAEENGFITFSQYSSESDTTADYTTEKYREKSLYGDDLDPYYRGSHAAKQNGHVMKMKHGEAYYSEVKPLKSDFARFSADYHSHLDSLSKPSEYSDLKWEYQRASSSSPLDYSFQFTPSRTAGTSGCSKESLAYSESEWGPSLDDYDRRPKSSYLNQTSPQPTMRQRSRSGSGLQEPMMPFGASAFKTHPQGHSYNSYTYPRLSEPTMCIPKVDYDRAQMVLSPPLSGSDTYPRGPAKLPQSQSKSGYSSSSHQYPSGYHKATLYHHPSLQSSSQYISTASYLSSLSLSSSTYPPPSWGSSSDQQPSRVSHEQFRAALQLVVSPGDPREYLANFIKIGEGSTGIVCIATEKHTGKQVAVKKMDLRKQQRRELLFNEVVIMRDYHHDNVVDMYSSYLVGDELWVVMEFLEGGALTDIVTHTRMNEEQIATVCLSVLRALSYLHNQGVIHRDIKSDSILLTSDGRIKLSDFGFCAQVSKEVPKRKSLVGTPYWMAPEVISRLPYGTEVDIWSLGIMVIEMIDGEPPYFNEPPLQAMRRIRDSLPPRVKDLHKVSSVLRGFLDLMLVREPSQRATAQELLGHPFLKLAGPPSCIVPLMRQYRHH
T1 sequence (Q86Z02 whole entry): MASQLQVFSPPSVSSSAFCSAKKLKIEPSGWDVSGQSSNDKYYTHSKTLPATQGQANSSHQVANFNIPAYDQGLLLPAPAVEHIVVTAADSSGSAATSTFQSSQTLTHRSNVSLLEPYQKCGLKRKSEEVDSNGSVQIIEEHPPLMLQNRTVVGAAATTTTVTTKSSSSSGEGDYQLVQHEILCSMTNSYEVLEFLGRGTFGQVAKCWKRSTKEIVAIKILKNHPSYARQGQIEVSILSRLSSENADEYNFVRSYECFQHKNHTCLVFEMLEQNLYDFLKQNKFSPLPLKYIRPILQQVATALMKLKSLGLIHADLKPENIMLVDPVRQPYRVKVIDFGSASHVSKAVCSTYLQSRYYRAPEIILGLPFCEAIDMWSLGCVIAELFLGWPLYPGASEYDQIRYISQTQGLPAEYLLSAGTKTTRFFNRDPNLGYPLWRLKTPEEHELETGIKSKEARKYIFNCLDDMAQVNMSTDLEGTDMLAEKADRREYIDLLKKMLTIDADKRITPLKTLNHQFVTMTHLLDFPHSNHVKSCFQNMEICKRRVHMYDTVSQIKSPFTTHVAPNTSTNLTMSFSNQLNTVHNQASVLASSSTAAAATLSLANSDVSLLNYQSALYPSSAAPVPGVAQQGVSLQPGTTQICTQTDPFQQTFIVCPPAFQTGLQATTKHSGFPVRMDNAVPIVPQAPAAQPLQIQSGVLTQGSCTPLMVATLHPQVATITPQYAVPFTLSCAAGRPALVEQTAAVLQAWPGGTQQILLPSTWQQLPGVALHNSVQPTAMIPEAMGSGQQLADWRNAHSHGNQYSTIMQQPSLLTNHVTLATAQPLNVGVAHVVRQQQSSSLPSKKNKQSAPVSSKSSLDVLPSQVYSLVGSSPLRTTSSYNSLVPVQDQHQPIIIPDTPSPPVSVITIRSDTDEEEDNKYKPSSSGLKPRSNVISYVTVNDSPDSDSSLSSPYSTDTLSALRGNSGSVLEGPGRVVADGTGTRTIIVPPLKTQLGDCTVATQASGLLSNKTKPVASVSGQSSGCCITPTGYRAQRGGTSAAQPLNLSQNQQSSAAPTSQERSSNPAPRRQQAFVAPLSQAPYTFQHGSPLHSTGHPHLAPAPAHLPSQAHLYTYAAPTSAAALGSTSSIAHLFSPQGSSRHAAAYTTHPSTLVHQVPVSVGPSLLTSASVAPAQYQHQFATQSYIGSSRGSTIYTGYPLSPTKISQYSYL

For the compound `CCN1CCN(C(=O)c2ccc(Nc3ncc(F)c(-c4ccc5nc(N(C)C)sc5c4)n3)nc2)CC1` [YK-2-69], the remaining activity at 1 µM in assay [1] came out at 106%; in assay [2] (kinase CDK4/cyclin D1) it was 6.13%; in assay [2] (kinase CDK4/cyclin D3), 11.2%; in [3], 101%; in [5], 106%; in assay [7] it was 106%. The remaining activity at 1 µM came out at 103% in assay [8]; 39.9% in assay [9]; 97.4% in assay [10]; 99.9% in assay [11]; 89.5% in assay [12]; 101% in assay [13]. For the same compound, the remaining activity at 1 µM was determined as 98.1% in assay [14]; 99.2% in assay [15]; 94% in assay [16]; 102% in [18]; 99.4% in [19]; 89.2% in assay [20]. Besides, the remaining activity at 1 µM in assay [21] was determined as 94.6%. The “% Enzyme Activity (relative to DMSO controls)” value in [4] is 112.23% and 104.96%; in [6], 102.94% and 101.79%; in assay [17], 100.08% and 99.24%.

Values taken from PMC9133015 (Nature Communications, 2022).
